Test results taken from the supplement of paper PMC6045584.
± gives the standard deviation of the averaged measurements.

Legend:
[1] = compound: COc1cc2c(cc1O)CC[C@@H]1[C@@H]2CC[C@]2(C)[C@@H](O)CC[C@@H]12 [2-METHOXYESTRADIOL]; experiment: surviving fraction relative to DMSO-only wells; higher = less growth inhibition; settings: exposure time: 5 days
Procedure, shortened: (§1)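 Viability was scored with CellTiter-Glo luminescence and normalised to the median of DMSO-only wells as surviving fraction. Beforehand, log-phase tumour cell lines were seeded at 250–500 cells per well in 384-well plates, allowed 24 hours, and exposed continuously for five days to inhibitors at 0.5, 1, 5, 10, 50, 100, 500 and 1000 nM. Only lines whose three screens gave replicate Pearson r >0.7 and median Z' >0.3 were kept.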

[2] = compound: CN1CC[C@H](c2c(O)cc(O)c3c(=O)cc(-c4ccccc4Cl)oc23)[C@H](O)C1 [FLAVOPIRIDOL]; experiment: as above; settings: exposure time: 5 days
Procedure, shortened: as §1

Row | Test System | surviving fraction ([1]; 0.5 nM) | surviving fraction ([1]; 1 nM) | surviving fraction ([1]; 5 nM) | surviving fraction ([1]; 10 nM) | surviving fraction ([1]; 50 nM) | surviving fraction ([1]; 100 nM) | surviving fraction ([1]; 500 nM) | surviving fraction ([1]; 1000 nM) | surviving fraction ([2]; 0.5 nM) | surviving fraction ([2]; 1 nM) | surviving fraction ([2]; 5 nM) | surviving fraction ([2]; 10 nM) | surviving fraction ([2]; 50 nM) | surviving fraction ([2]; 100 nM) | surviving fraction ([2]; 500 nM) | surviving fraction ([2]; 1000 nM)
1 | MDAMB436 BREAST | 0.944 ± 0.012 | 0.951 ± 0.19 | 1 ± 0.016 | 0.953 ± 0.065 | 0.956 ± 0.065 | 0.971 ± 0.045 | 0.779 ± 0.12 | 0.62 ± 0.079 | 0.998 ± 0.042 | 0.991 ± 0.071 | 1.06 ± 0.14 | 0.941 ± 0.036 | 0.556 ± 0.026 | 0.183 ± 0.024 | 0.185 ± 0.0025 | 0.182 ± 0.0028
2 | MDAMB453 BREAST | 1.04 ± 0.059 | 0.995 ± 0.032 | 1.02 ± 0.079 | 1.02 ± 0.037 | 1.08 ± 0.037 | 1.05 ± 0.048 | 0.511 ± 0.072 | 0.257 ± 0.014 | 1.039 ± 0.0056 | 1.03 ± 0.071 | 1.1 ± 0.083 | 1.01 ± 0.02 | 0.586 ± 0.056 | 0.134 ± 0.022 | 0.085 ± 0.017 | 0.074 ± 0.025
3 | MDAMB468 BREAST | 0.994 ± 0.12 | 1.08 ± 0.056 | 1.03 ± 0.053 | 1.13 ± 0.072 | 1.09 ± 0.055 | 1.15 ± 0.065 | 1.01 ± 0.081 | 0.99 ± 0.064 | 1.03 ± 0.031 | 0.967 ± 0.064 | 1.03 ± 0.045 | 0.991 ± 0.04 | 0.734 ± 0.061 | 0.15 ± 0.016 | 0.0447 ± 0.005 | 0.04 ± 0.0061
4 | MFM223 BREAST | 1.11 ± 0.1 | 1.11 ± 0.062 | 1.1 ± 0.093 | 1.17 ± 0.35 | 1.06 ± 0.034 | 0.973 ± 0.026 | 0.384 ± 0.057 | 0.16 ± 0.032 | 1.45 ± 0.57 | 1.45 ± 0.64 | 1.46 ± 0.61 | 1.25 ± 0.4 | 0.351 ± 0.032 | 0.119 ± 0.045 | 0.0438 ± 0.021 | 0.0642 ± 0.061
5 | MG63 BONE | 0.991 ± 0.015 | 1.008 ± 0.0075 | 1.02 ± 0.014 | 1.01 ± 0.018 | 1.04 ± 0.029 | 1.05 ± 0.021 | 0.971 ± 0.034 | 0.861 ± 0.03 | 1.06 ± 0.022 | 1.06 ± 0.023 | 1.165 ± 0.0064 | 1.19 ± 0.033 | 1.35 ± 0.045 | 0.782 ± 0.049 | 0.0347 ± 0.0023 | 0.0313 ± 0.0015
6 | MHM BONE | 1.02 ± 0.035 | 1.01 ± 0.033 | 1.04 ± 0.049 | 1.03 ± 0.05 | 1.04 ± 0.029 | 1.03 ± 0.045 | 0.975 ± 0.015 | 0.673 ± 0.048 | 1.02 ± 0.036 | 1.04 ± 0.035 | 1.06 ± 0.024 | 1.11 ± 0.025 | 1.227 ± 0.0078 | 1.16 ± 0.048 | 0.0433 ± 0.0021 | 0.0397 ± 0.0021
7 | NCIH441 LUNG | 1.1 ± 0.058 | 1.03 ± 0.073 | 1.08 ± 0.036 | 1.03 ± 0.065 | 1.03 ± 0.097 | 1.03 ± 0.084 | 0.922 ± 0.09 | 0.575 ± 0.093 | 1.18 ± 0.06 | 1.12 ± 0.026 | 1.09 ± 0.042 | 1.08 ± 0.11 | 0.953 ± 0.081 | 0.698 ± 0.17 | 0.103 ± 0.024 | 0.0917 ± 0.024
8 | NOS1 BONE | 1.19 ± 0.077 | 1.15 ± 0.063 | 1.27 ± 0.18 | 1.28 ± 0.14 | 1.13 ± 0.23 | 1.22 ± 0.097 | 0.981 ± 0.055 | 0.438 ± 0.036 | 1.25 ± 0.046 | 1.19 ± 0.054 | 1.22 ± 0.15 | 1.26 ± 0.084 | 0.54 ± 0.061 | 0.083 ± 0.0027 | 0.031 ± 0.004 | 0.0383 ± 0.0084
9 | NY BONE | 0.95 ± 0.026 | 0.952 ± 0.014 | 0.983 ± 0.021 | 0.994 ± 0.017 | 1.03 ± 0.018 | 1 ± 0.031 | 0.106 ± 0.0015 | 0.057 ± 0.0036 | 0.984 ± 0.015 | 0.977 ± 0.017 | 1.05 ± 0.027 | 1.01 ± 0.05 | 0.813 ± 0.071 | 0.0513 ± 0.01 | 0.025 ± 0.001 | 0.024 ± 0.001
10 | OS25HAL BONE | 0.828 ± 0.2 | 0.94 ± 0.029 | 0.961 ± 0.021 | 0.945 ± 0.042 | 1 ± 0.086 | 1.05 ± 0.072 | 0.501 ± 0.092 | 0.169 ± 0.014 | 1.01 ± 0.035 | 0.996 ± 0.058 | 1.12 ± 0.052 | 1.06 ± 0.021 | 1.1 ± 0.036 | 0.101 ± 0.015 | 0.048 ± 0.013 | 0.0443 ± 0.012
11 | OSHN BONE | 1.03 ± 0.012 | 1.046 ± 0.0025 | 1.05 ± 0.026 | 1.031 ± 0.0067 | 1.054 ± 0.0092 | 1.068 ± 0.007 | 1.04 ± 0.033 | 0.044 ± 0.0036 | 1.08 ± 0.018 | 1.08 ± 0.022 | 1.114 ± 0.0095 | 1.08 ± 0.018 | 1.23 ± 0.035 | 0.382 ± 0.041 | 0.0357 ± 0.0055 | 0.0323 ± 0.0075
12 | PCI30 HEADNECK | 0.783 ± 0.016 | 0.857 ± 0.019 | 1.03 ± 0.039 | 0.985 ± 0.057 | 1.01 ± 0.078 | 0.982 ± 0.051 | 0.421 ± 0.048 | 0.216 ± 0.046 | 1.02 ± 0.019 | 1.02 ± 0.038 | 1.15 ± 0.031 | 1.13 ± 0.029 | 0.701 ± 0.028 | 0.085 ± 0.0053 | 0.032 ± 0.0017 | 0.0303 ± 0.00058
13 | RDES SOFT TISSUE | 1.26 ± 0.16 | 1.26 ± 0.086 | 1.15 ± 0.046 | 1.29 ± 0.11 | 1.29 ± 0.15 | 1.17 ± 0.14 | 1.13 ± 0.12 | 0.178 ± 0.034 | 1.36 ± 0.11 | 1.3 ± 0.12 | 1.39 ± 0.07 | 1.44 ± 0.059 | 1.66 ± 0.12 | 0.945 ± 0.2 | 0.0467 ± 0.0025 | 0.0383 ± 0.0025
14 | S68 BREAST | 0.845 ± 0.17 | 0.812 ± 0.15 | 0.879 ± 0.13 | 1.16 ± 0.3 | 1.24 ± 0.23 | 0.985 ± 0.067 | 0.617 ± 0.036 | 0.325 ± 0.017 | 1.18 ± 0.31 | 0.847 ± 0.12 | 0.765 ± 0.091 | 1.2 ± 0.31 | 0.888 ± 0.29 | 0.483 ± 0.068 | 0.0377 ± 0.0021 | 0.0367 ± 0.0055
15 | SAOS2 BONE | 1.09 ± 0.099 | 1.16 ± 0.065 | 1.17 ± 0.019 | 1.17 ± 0.05 | 1.28 ± 0.21 | 1.22 ± 0.051 | 0.769 ± 0.076 | 0.272 ± 0.013 | 1.23 ± 0.13 | 1.18 ± 0.06 | 1.26 ± 0.039 | 1.14 ± 0.04 | 0.889 ± 0.048 | 0.159 ± 0.022 | 0.0307 ± 0.0015 | 0.0247 ± 0.0025
16 | SCC003 HEADNECK | 0.936 ± 0.064 | 0.88 ± 0.13 | 1.03 ± 0.045 | 0.976 ± 0.074 | 1.04 ± 0.043 | 1.11 ± 0.017 | 0.867 ± 0.15 | 0.734 ± 0.087 | 1.06 ± 0.061 | 1.1 ± 0.083 | 1.12 ± 0.055 | 0.987 ± 0.084 | 0.667 ± 0.032 | 0.392 ± 0.14 | 0.0627 ± 0.0064 | 0.0573 ± 0.0032
